Test: xn = mol fraction of the nth substance listed
Conditions: 100 kPa, Liquid; for viscosity: Capillary tube (Ostwald / Ubbelohde) method; for mass density: Vibrating tube method

CCCCn1cc[n+](C)c1C.O=S(=O)([N-]S(=O)(=O)C(F)(F)F)C(F)(F)F + O=C1CCCO1
Conditions	mass density [kg/m3]	viscosity [mPa·s]
293.15 K, x1 = 0.0532	1183	2.62
293.15 K, x1 = 0.1004	1219.51	3.65
293.15 K, x1 = 0.1504	1250.59	4.95
293.15 K, x1 = 0.1999	1275.61	6.54
293.15 K, x1 = 0.2988	1314.04	10.79
293.15 K, x1 = 0.4006	1342.77	17.78
293.15 K, x1 = 0.5005	1364.2	26.66
293.15 K, x1 = 0.5999	1381	40.38
293.15 K, x1 = 0.7	1394.71	56.57
293.15 K, x1 = 0.8013	1406.18	79.17
293.15 K, x1 = 0.8986	1415.43	102.22
293.15 K, x1 = 1	1423.72	133.59
298.15 K, x1 = 0.0532	1178.1	2.43
298.15 K, x1 = 0.1004	1214.61	3.29
298.15 K, x1 = 0.1504	1245.77	4.48
298.15 K, x1 = 0.1999	1270.81	5.77
298.15 K, x1 = 0.2988	1309.26	9.32
298.15 K, x1 = 0.4006	1338.05	14.92
298.15 K, x1 = 0.5005	1359.5	22.02
298.15 K, x1 = 0.5999	1376.34	32.56
298.15 K, x1 = 0.7	1390.08	44.79
298.15 K, x1 = 0.8013	1401.56	60.93
298.15 K, x1 = 0.8986	1410.81	78.62
298.15 K, x1 = 1	1419.13	101.34
303.15 K, x1 = 0.0532	1173.22	2.23
303.15 K, x1 = 0.1004	1209.75	2.98
303.15 K, x1 = 0.1504	1240.94	4.01
303.15 K, x1 = 0.1999	1266	5.11
303.15 K, x1 = 0.2988	1304.49	8.06
303.15 K, x1 = 0.4006	1333.32	12.72
303.15 K, x1 = 0.5005	1354.8	18.27
303.15 K, x1 = 0.5999	1371.67	26.34
303.15 K, x1 = 0.7	1385.42	35.8
303.15 K, x1 = 0.8013	1396.93	48.32
303.15 K, x1 = 0.8986	1406.19	61.12
303.15 K, x1 = 1	1414.52	77.86
308.15 K, x1 = 0.0532	1168.35	2.05
308.15 K, x1 = 0.1004	1204.91	2.72
308.15 K, x1 = 0.1504	1236.11	3.65
308.15 K, x1 = 0.1999	1261.18	4.57
308.15 K, x1 = 0.2988	1299.72	7.1
308.15 K, x1 = 0.4006	1328.58	10.83
308.15 K, x1 = 0.5005	1350.1	15.54
308.15 K, x1 = 0.5999	1366.99	21.9
308.15 K, x1 = 0.7	1380.78	29.22
308.15 K, x1 = 0.8013	1392.3	39.19
308.15 K, x1 = 0.8986	1401.58	48.88
308.15 K, x1 = 1	1409.91	61.73
313.15 K, x1 = 0.0532	1163.43	1.9
313.15 K, x1 = 0.1004	1200.07	2.49
313.15 K, x1 = 0.1504	1231.24	3.28
313.15 K, x1 = 0.1999	1256.38	4.11
313.15 K, x1 = 0.2988	1294.96	6.29
313.15 K, x1 = 0.4006	1323.85	9.4
313.15 K, x1 = 0.5005	1345.39	13.32
313.15 K, x1 = 0.5999	1362.33	18.32
313.15 K, x1 = 0.7	1376.14	24.44
313.15 K, x1 = 0.8013	1387.67	32.14
313.15 K, x1 = 0.8986	1396.98	39.87
313.15 K, x1 = 1	1405.31	49.77
318.15 K, x1 = 0.0532	1158.58	1.74
318.15 K, x1 = 0.1004	1195.18	2.3
318.15 K, x1 = 0.1504	1226.41	3.06
318.15 K, x1 = 0.1999	1251.54	3.74
318.15 K, x1 = 0.2988	1290.17	5.63
318.15 K, x1 = 0.4006	1319.11	8.18
318.15 K, x1 = 0.5005	1340.7	11.52
318.15 K, x1 = 0.5999	1357.64	15.42
318.15 K, x1 = 0.7	1371.48	20.51
318.15 K, x1 = 0.8013	1383.04	26.78
318.15 K, x1 = 0.8986	1392.36	32.9
318.15 K, x1 = 1	1400.7	40.7
323.15 K, x1 = 0.0532	1153.71	1.63
323.15 K, x1 = 0.1004	1190.32	2.12
323.15 K, x1 = 0.1504	1221.58	2.72
323.15 K, x1 = 0.1999	1246.73	3.39
323.15 K, x1 = 0.2988	1285.42	5.03
323.15 K, x1 = 0.4006	1314.4	7.22
323.15 K, x1 = 0.5005	1336.03	10.06
323.15 K, x1 = 0.5999	1352.99	13.17
323.15 K, x1 = 0.7	1366.86	17.44
323.15 K, x1 = 0.8013	1378.44	22.39
323.15 K, x1 = 0.8986	1387.78	27.46
323.15 K, x1 = 1	1396.13	33.69
